Holding throughout (format): cell-based, human
Assay [1] concerns NFκB p65. As to the kind of experiment: TNF-stimulated nuclear translocation of NFκB in HUVEC. The note with it: 20 μmol/l. The method, then: FIG. 17 is a representation showing (A) the effect of MP3 (β-oxa 23:4n-6) and DHA on TNF-induced degradation of IκBα in HUVEC. Cells were pre-treated with the fatty acids (20 μmol/l) for 30 min and then stimulated with TNF (125 U/ml) for 10 min. After cell lysis the proteins were analyzed by Western blots using anti-IκBα antibodies. (B) The effects of β-oxa-23:4n-6 on TNF-induced activation of transcriptional factor, NFκB in HUVEC. Cells were pre-treated with β-oxa-23:4n-6 (20 μmol/l) for 30 min and then stimulated with TNF for 2 hr. After cell lysis, nuclear fractions were prepared, nuclear proteins separated by SDS PAGE (12% w/v gel), transferred to nitrocellulose and probed with an anti-NFκB p65 antibody (Santa Cruz). […] (C) The effect of β-oxa 23:4n-6 on TNF-stimulated activation of IKK. Cells were pre-treated with β-oxa 23:4n-6 (20 μmol/l) for 30 min and then stimulated with TNF for 5 min. After cell lysis IKK was immunoprecipitated with anti-IKKα antibody and kinase activity determined. […]
Proteins (50 μg) were separated by SDS PAGE (12% w/v gel), transferred to nitrocellulose and probed with an anti-NFκB p65 or anti-IκBα antibody (Santa Cruz Biotech, Santa Cruz, Calif.). Immunocomplexes were detected by enhanced chemiluminescence (Hii et al, 1998 supra).

In assay [2] the test system is IKK. As to the kind of experiment: TNF-stimulated activation of IKK in HUVEC (immunoprecipitation kinase assay). The note with it: 20 μmol/l, 30 min, TNF 5 min. The method, then: FIG. 17 is a representation showing (A) the effect of MP3 (β-oxa 23:4n-6) and DHA on TNF-induced degradation of IκBα in HUVEC. Cells were pre-treated with the fatty acids (20 μmol/l) for 30 min and then stimulated with TNF (125 U/ml) for 10 min. After cell lysis the proteins were analyzed by Western blots using anti-IκBα antibodies. (B) The effects of β-oxa-23:4n-6 on TNF-induced activation of transcriptional factor, NFκB in HUVEC. Cells were pre-treated with β-oxa-23:4n-6 (20 μmol/l) for 30 min and then stimulated with TNF for 2 hr. After cell lysis, nuclear fractions were prepared, nuclear proteins separated by SDS PAGE (12% w/v gel), transferred to nitrocellulose and probed with an anti-NFκB p65 antibody (Santa Cruz). […] (C) The effect of β-oxa 23:4n-6 on TNF-stimulated activation of IKK. Cells were pre-treated with β-oxa 23:4n-6 (20 μmol/l) for 30 min and then stimulated with TNF for 5 min. After cell lysis IKK was immunoprecipitated with anti-IKKα antibody and kinase activity determined.
IKK was immunoprecipitated with anti-IKKα (M-280) antibody (sc-7182, Santa Cruz, Biotech) and kinase activity determined using GST-IκBA (residues 5-55) as previously described (Lee et al, 1998 supra). Proteins were fractionated by SDS PAGE and radioactivity associated with GST-IκBα (residues 5-55) determined using an instant imager.

Assay [3] concerns VCAM-1. As to the kind of experiment: Adhesion molecule expression on HUVEC (ELISA). Particulars: for Suppression of TNF-α-induced VCAM-1 expression on HUVEC: 60 min pre-treatment. The method, then: (§1) FIG. 13 is a representation showing effect of MP3 (β-oxa-23:4n-6) and 20:4n-6 on time-related changes in TNF-α-induced E-selectin, ICAM-1 and VCAM-1 expression on HUVEC. HUVEC were pre-treated with 20 μmol/l β-oxa-23:4n-6 (closed triangles), 20 μmol/l 20:4n-6 (open squares), or DPC (control) for 60 min and then further incubated with TNF-α (125 U/200 μl medium) for up to 24 hr. The expression of E-selectin, ICAM-1 and VCAM-1 adhesion molecules was determined by ELISA. The results are expressed as % of control and represent the mean±SEM of three separate experiments each performed in triplicate. * p<0.05, **p<0.01, ***p<0.001, for significant differences between pre-treatment with fatty acid and corresponding control at a particular time point (one-way analysis of variance followed by the Dunnett test for multiple comparisons). Inset: The effect of β-oxa-23:4n-6 on TNF-α-induced expression of E-selectin mRNA in HUVEC. HUVEC were pre-incubated with β-oxa-23:4n-6 (20 μmol/l) or DPC (control) in 1 ml of medium at 37° C. for 60 min. After the addition of TNF-α, the cells were further incubated at 37° C. for 2 hr. E-selectin mRNA expression was then determined and the results expressed as relative %. Results are the mean±SEM of three separate experiments each performed in quadruplicate. *p<0.0001, for significant differences between pre-treatment with β-oxa-23:4n-6, and control (two-tailed Student's t-test for unpaired data).
(§2) HUVEC were stimulated with TNF, bacterial lipopolysaccharide (LPS) or PMA for 24 hr. Expression of E-selectin, ICAM-1 and VCAM-1 was determined by an enzyme-linked immunosorbent assay (ELISA) or as mRNA using a slot blot technique (Huang et al 1997 supra).
In general terms: An ELISA detects its analyte on a solid surface through an enzyme-linked reagent.

Assay [4] has as its system ICAM-1. As to the kind of experiment: Adhesion molecule expression on HUVEC (ELISA). Particulars: for Suppression of TNF-α-induced ICAM-1 expression on HUVEC: 60 min pre-treatment. The method, then: as §1, §2
The mark [5] stands for this setting: 20 μmol/l, listed as β-oxa-23:4n-6.

With `CCCCC/C=C\C/C=C\C/C=C\C/C=C\CCCCOCC(=O)O` [MP3, β-oxa-23:4n-6], in assay [1] (30 min, TNF 2 hr, mean±SEM, three experiments), the “Reduction of TNF-stimulated nuclear accumulation of NFκB” value was 66±2%. Further, the “Translocation of NFκB to the nucleus” value in assay [1] (TNF) is “inhibition of translocation of NFκB to the nucleus”. Further, the “TNF-stimulated activation of IKK / IκB kinase-NFκB signalling pathway” value is listed as “inhibits the ability of TNF to activate” in assay [2] and “significantly inhibited” in assay [2] (listed as β-oxa 23:4n-6). The “Suppression of TNF-α-induced VCAM-1 expression on HUVEC” value in assay [3] (20 μmol/l) is “better than docosahexaenoic acid (22:6n-3) at suppressing”; in assay [3] (setting [5]), “inhibited the expression”. The “Time of cytokine treatment at maximum inhibition of VCAM-1 expression” value in assay [3] (20 μmol/l, TNF-α) is 12 h. The “Inhibition of LPS and PMA-induced up-regulation of VCAM-1” value in assay [3] (HUVEC) was “inhibited LPS and PMA-induced, up-regulation”. Further, the “Suppression of TNF-α-induced ICAM-1 expression on HUVEC” value was “better than docosahexaenoic acid (22:6n-3) at suppressing” in assay [4] (20 μmol/l) and “inhibited the expression” in assay [4] (setting [5]). In assay [4] (20 μmol/l, TNF-α), the “Time of cytokine treatment at maximum inhibition of ICAM-1 expression” value stood at 6 h. Besides, the “Inhibition of LPS and PMA-induced up-regulation of ICAM-1” value in assay [4] (HUVEC) was “inhibited LPS and PMA-induced, up-regulation”.

For the origin of these results see patent US20090215895A1, “Therapeutic and carrier molecules” (PEPLIN BIOLIPIDS PTY LTD, priority 2004, published 2009).
